Measured values reported in US12318398B2, “MST1 kinase inhibitor and use thereof” (priority 2018, dated 2025).
Like-named read-outs stand apart in the source and are kept apart here.

Tests used:
C57BL/6 mice = test: Liver injury repair experiment (paracetamol/APAP-induced); type: in vivo
Method: C57BL/6 mice, male, 20 g, were maintained in a SPF animal room. Thirty C57BL/6 mice were fasted for 12 hours overnight, and 5 mice of which were intraperitoneally injected with normal saline to act as a normal control group, and the other 25 mice were intraperitoneally injected with paracetamol (APAP) (purchased from Sigma)-600 mg/kg, and randomly divided into 5 groups after 30 minutes, wherein the 5 groups include vehicle (5% DMSO in water), compound 1-1-po, compound 1-2-po, compound 1-4-po, XMU-MP-1-ip groups. Mice in the vehicle group were administered intragastrically with vehicle control; mice in the compound 1-1-po, compound 1-2-po, compound 1-4-po groups were administered intragastrically with compound 1 at 1 mg/kg, 2 mg/kg or 4 mg/kg, respectively; mice in the XMU-MP-1-ip group were intraperitoneally administered with the control compound XMU-MP-1 at 1 mg/kg. After the administration, the body weight of the mice was monitored and the survival status of the mice was observed.

TAOK = conditions: literature; cited from earlier work
MAP3K2 = MAP3K2 (Homo sapiens (Human), UniProt Q9Y2U5); conditions: literature; cited from earlier work
AURKA = AURKA (Homo sapiens (Human), UniProt O14965); conditions: literature; cited from earlier work
MST1 [1] = target: T1, MST1 (Homo sapiens (Human), UniProt Q13043); conditions: literature; read-out: IC50 against MST1; cited from earlier work
MIN-6 cells = test: Proliferation of MIN-6 cells (cell counter); conditions: 1 μM, 72 hours
Method: The effects of compound 1 and the control compound XMU-MP-1 on MST1 signaling pathway such as autophosphorylation of MST1, apoptosis signaling pathway such as cleavage of four proteins Caspase9/7/3 and PARP, expression of BIM, BAX, BCL-2, BCL-XL protein, proliferation-related signaling pathway such as autophosphorylation of AKT and ERK, and phosphorylation and protein expression of insulin secretion transcription factor PDX1 were tested in mouse pancreatic β-cells, MIN-6 cells (Hunan Fenghuishengwu technology Co., Ltd.). Compound 1 of different concentrations (0 μM, 0.3 μM, 1 μM, 3 μM in DMSO) and XMU-MP-1 of 1 μM (in DMSO) were used to treat the cell line for 72 hours in a medium with a glucose content of 33.3 mM, respectively. One of the control DMSO group involved 5.5 mM glucose and the other one involved 33.3 mM glucose. The samples were collected.
JIMBIO cell counter (EXCEL HERO TECHNOLOGY LIMITED) was used to detect the effect on the proliferation of MIN-6 cells after 72 hours of the administration.

PIK3CG = PIK3CG (Homo sapiens (Human), UniProt P48736); conditions: literature; cited from earlier work
MST2 = MST2 (Homo sapiens (Human), UniProt Q13188); conditions: read-out: IC50 against MST2; literature; cited from earlier work
MST1 [2] = target: T1, MST1; test: In vitro enzyme activity test (ADP-GLO); type: biochemical; conditions: ATP 50 μM, 37° C. 1 hour, read-out: MST1 (IC50/μM)
Method: The IC50 values of the compounds against MST1 were determined. The protein kinase MST1 and the substrate were obtained from commercial sources.
5.4 μL of protein kinase MST1 diluted to a certain concentration (final concentration was 2.5 ng/μL) and 1 μL of serially diluted drug compounds and control compound XMU-MP-1 were taken to react at room temperature for 10 minutes (final drug concentrations were 10 μM, 1 μM, 0.3 μM, 0.1 μM, 0.03 μM, 0.01 μM, 0.003 μM, 0.001 μM, respectively).
6 μL of a mixture of ATP (with a final reaction concentration of 50 μM) and substrate was added to the above reaction tube to react at 37° C. for 1 hour. The reaction buffer was 40 mM Tris, 7.5; 20 mM MgCl2; 0.1 mg/ml BSA; 50 μM DTT.
5 μL of the kinase mixture after the reaction was taken to a 384-well plate, and 5 μL of ADP-GLO™ reagent was added thereto. After reaction at room temperature for 40 minutes, the kinase reaction was terminated and the remaining ATP was consumed.
10 μL of a kinase detection reagent was added to convert ADP into ATP, and a coupled luciferase/luciferin reaction was utilized to detect the newly synthesized ATP. Envision was used to read and plot the data, and calculate the IC50 value.

T1 sequence (Q13043 whole entry): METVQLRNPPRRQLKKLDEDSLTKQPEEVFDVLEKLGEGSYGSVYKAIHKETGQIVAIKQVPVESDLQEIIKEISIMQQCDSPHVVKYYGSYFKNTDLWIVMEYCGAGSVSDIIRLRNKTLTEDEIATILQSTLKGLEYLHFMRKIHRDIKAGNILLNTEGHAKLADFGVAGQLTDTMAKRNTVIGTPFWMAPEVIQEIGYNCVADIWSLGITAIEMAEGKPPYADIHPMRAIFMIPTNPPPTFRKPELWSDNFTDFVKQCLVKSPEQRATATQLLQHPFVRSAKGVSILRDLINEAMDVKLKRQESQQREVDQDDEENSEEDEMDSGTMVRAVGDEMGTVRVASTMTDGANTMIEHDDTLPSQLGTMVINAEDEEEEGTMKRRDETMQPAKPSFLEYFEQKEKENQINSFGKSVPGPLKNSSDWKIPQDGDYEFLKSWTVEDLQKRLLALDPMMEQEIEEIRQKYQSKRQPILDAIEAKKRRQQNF
Sequence of AURKA (O14965 whole entry, species assumed): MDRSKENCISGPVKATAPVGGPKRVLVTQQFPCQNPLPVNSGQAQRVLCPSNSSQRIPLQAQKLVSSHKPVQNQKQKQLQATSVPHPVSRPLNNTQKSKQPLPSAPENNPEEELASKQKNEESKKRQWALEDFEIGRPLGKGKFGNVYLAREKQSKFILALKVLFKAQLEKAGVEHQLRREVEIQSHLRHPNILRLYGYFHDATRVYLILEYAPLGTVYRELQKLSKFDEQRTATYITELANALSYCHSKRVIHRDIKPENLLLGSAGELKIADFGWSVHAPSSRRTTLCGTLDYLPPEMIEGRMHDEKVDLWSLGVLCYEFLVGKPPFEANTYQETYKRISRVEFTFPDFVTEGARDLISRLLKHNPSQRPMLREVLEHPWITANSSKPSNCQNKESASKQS
Sequence of MAP3K2 (Q9Y2U5 whole entry, species assumed): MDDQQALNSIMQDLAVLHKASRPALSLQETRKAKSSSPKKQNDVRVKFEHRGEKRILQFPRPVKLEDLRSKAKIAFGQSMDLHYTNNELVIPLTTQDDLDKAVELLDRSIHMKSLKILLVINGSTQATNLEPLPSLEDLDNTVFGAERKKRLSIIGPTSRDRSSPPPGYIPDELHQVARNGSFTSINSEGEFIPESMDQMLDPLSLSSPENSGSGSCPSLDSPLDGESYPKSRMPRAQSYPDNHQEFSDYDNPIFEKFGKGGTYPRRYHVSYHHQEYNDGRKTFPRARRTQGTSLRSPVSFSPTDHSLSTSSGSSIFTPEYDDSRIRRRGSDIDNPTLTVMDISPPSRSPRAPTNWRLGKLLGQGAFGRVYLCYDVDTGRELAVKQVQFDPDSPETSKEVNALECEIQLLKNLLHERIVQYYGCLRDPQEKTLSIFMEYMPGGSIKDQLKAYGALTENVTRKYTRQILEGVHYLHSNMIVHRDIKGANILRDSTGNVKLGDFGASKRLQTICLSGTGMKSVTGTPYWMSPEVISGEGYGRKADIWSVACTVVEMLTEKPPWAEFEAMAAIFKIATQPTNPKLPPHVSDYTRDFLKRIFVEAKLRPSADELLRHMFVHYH
Sequence of PIK3CG (P48736 whole entry, species assumed): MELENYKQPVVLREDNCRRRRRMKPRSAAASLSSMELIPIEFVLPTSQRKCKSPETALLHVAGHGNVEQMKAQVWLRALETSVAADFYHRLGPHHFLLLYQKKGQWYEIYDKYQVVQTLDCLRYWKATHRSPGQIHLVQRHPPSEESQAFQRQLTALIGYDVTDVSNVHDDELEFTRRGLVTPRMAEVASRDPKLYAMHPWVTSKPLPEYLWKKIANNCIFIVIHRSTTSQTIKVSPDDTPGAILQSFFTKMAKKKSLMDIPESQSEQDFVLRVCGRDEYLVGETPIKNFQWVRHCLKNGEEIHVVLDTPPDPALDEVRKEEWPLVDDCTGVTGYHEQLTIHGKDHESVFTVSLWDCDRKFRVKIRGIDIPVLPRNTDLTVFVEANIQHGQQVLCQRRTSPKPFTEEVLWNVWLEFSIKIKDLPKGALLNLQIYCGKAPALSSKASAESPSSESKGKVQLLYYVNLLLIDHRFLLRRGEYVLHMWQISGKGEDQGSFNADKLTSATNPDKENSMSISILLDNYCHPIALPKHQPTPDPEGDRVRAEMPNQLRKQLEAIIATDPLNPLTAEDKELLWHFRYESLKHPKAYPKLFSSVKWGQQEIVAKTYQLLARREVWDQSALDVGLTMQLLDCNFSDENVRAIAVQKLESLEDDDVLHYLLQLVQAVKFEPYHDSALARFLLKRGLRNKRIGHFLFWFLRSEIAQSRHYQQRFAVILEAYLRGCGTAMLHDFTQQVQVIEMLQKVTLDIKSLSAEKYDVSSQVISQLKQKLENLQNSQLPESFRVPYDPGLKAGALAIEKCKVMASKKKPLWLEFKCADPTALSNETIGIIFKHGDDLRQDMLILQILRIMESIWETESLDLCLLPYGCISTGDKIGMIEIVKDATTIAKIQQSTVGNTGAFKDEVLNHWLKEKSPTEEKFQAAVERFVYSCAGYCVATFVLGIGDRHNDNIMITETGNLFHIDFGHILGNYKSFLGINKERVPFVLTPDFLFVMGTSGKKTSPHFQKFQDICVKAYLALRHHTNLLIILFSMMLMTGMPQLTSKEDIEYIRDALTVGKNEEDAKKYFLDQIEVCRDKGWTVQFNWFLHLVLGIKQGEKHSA
Sequence of MST2 (Q13188 whole entry, species assumed): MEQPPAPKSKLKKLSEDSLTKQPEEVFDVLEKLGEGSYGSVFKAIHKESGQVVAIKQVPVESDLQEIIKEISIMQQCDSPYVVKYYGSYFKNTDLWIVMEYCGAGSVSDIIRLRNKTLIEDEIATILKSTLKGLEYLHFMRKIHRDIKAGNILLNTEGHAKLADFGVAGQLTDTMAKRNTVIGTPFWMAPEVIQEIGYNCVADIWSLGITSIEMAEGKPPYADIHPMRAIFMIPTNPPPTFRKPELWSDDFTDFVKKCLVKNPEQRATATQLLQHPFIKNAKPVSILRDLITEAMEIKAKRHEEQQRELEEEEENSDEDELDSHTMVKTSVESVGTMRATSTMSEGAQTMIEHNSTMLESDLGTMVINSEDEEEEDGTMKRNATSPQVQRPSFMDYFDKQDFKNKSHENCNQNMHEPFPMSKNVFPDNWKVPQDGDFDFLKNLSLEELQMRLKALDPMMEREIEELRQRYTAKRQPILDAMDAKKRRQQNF

For `CN1C(=O)c2sccc2N(C)c2nc(Nc3ccc(S(N)(=O)=O)cc3)ncc21` [XMU-MP-1], the “survival of the mice” value (C57BL/6 mice; 1 mg/kg intraperitoneally after APAP 600 mg/kg ip) is listed as “all escaped from death”, the weight of mice (C57BL/6 mice; after APAP 600 mg/kg ip, compound 1 po 1-4 mg/kg, XMU-MP-1 ip 1 mg/kg) is listed as “can gradually recover” and the “inhibitory effect on TAOK” value (TAOK) is listed as “significant inhibitory effect”. For the same molecule, the “inhibitory effect on MAP3K2” value (MAP3K2) was “significant inhibitory effect”, the “inhibition of AURKA” value (AURKA) was “inhibited” and the IC50 (MST1 [1]) was 71 nM. The number of cells (MIN-6 cells) was “reduced to a certain extent”, the “toxicity to MIN6 cells” value (MIN-6 cells) was “toxic to MIN6 cells to a certain extent” and the “inhibition of PIK3CG” value (PIK3CG) was “inhibited”. The IC50 (MST2) was 38 nM and the IC50 (MST1 [2]) was 0.121 µM.
